Results taken from patent US20120277187A1, “Agent for Preventing Infection” (priority 2006, published 2012).
“Also recorded” adds a separate entry of the source.

What was measured:
Format in all cases: in vivo, mouse (Balb/c)
[1] = system: A/Guizhou virus (type A influenza virus); assay: Transnasal sphingomyelin with simultaneous type A influenza virus infection in mice (nasal cavity wash virus titer, plaque method with MDCK cell)
Experimental: (§1) (Verification of the Effect to Prevent Infection with Type A Influenza Virus and Type B Influenza Virus)
(§2) Mice (Balb/c, male, 6 weeks of age) were transnasally infected with A/Guinzhou virus as the type A influenza virus or B/Ibaraki virus as the type B influenza virus, and at the same time, a 100 μg/ml solution of the sphingomyelin (SPM) obtained in Example 1 was transnasally administered at a dose of 5 μl/nasal cavity dose (dose: 0.5 μg), and the preventive effect on the infection with an influenza virus was judged by the virus titer in the nasal cavity washes. In this connection, groups transnasally infected with respective influenza viruses alone were prepared. A plaque method which uses MDCK cell was used in the judgment.

[2] = system: B/Ibaraki virus (type B influenza virus); assay: Transnasal sphingomyelin with simultaneous type B influenza virus infection in mice (nasal cavity wash virus titer, plaque method with MDCK cell)
Experimental: as §1, §2

[3] = system: influenza virus PR 8 (H1N1); assay: Oral administration of sphingomyelin, prevention of influenza virus infection in mice (nasal cavity wash virus titer, plaque method with MDCK cell); details: for Nasal cavity virus titer x (PFU/ml: 10^x): 1×10^3 pfu PR 8 (H1N1), nasal cavity washes 3 days after infection
Source text: (Verification of the Effect of Oral Administration of Sphingomyelin on the Prevention of Infection with an Influenza Virus)
A mouse (Balb/c, male, 6 weeks of age) was infected with 1×10^3 pfu in viral quantity of influenza virus PR 8 (H1N1). Before the infection treatment, sphingomyelin was orally administered, and its infection preventive effect was judged by the virus titer in the nasal cavity washes 3 days after the virus infection. In carrying out the oral administration, sphingomyelin was used by dispersing in water. A plaque method which uses MDCK cell was used in the judgment.
This indicates the effect of sphingomyelin to prevent infection with an influenza virus.

Substance: sphingomyelin [SPM]
- Nasal cavity virus titer ([1]; A/Guizhou virus, transnasal 100 μg/ml, 5 μl/nasal cavity (dose 0.5 μg) at the same time as infection): 1.99 ± 0.31
- Infection preventive effect (in words) ([1]; type A influenza virus, transnasal administration): confirmed; also recorded: more considerable effect
- Nasal cavity virus titer ([2]; B/Ibaraki virus, transnasal 100 μg/ml, 5 μl/nasal cavity (dose 0.5 μg) at the same time as infection): 2.73 ± 0.06
- Infection preventive effect (in words) ([2]; type B influenza virus, transnasal administration): confirmed
- Nasal cavity virus titer x (PFU/ml: 10^x) ([3]; 1 mg oral before infection): 2.23 ± 0.16 PFU/ml: 10^x
- Nasal cavity virus titer x (PFU/ml: 10^x) ([3]; 10 mg oral before infection): 2.15 ± 0.29 PFU/ml: 10^x
- Nasal cavity virus titer in administration group (in words) ([3]; oral administration group versus control (no administration)): lowered with significance
